Measured values reported in ChEMBL document CHEMBL2094260, “Malaria Box Tuberculosis Screening Data”.

System: Mycobacterium tuberculosis
Test: MMV: Screen against Mtb, single point, non replicating, at 25uM
Format: functional

Row | SMILES | inhibition at 25 µM
1 | CCC(O)c1ccc(Br)cc1NC(=O)c1cccc(Cl)c1 (configuration not stated) | 14.6%
2 | CN1CCN(c2c3c(c(C#N)c4nc5ccccc5n24)CCC3)CC1 | 4.53%
3 | Oc1ccc(Cl)cc1CNc1nc2ccccc2[nH]1 | 4.53%
4 | CCOC(=O)C1=C(c2ccccc2)N=c2sc(=Cc3cc(C)n(-c4ccc(F)cc4)c3C)c(=O)n2C1c1cccc(OC)c1OC (configuration not stated) | 6.1%
5 | COc1ccccc1NC1=C(N2CCCCC2)C(=O)c2ccccc2C1=O | 24.8%
6 | Oc1ccc(Br)cc1CN1CCN(Cc2ccc(Cl)cc2)CC1 | 17.6%
7 | COc1ccc(C=C2SC(=N)N(c3ccccc3OC)C2=O)cc1 | 6.97%
8 | COc1cc(SC)ccc1C(=O)N1CCCC(C)C1 (configuration not stated) | 8.89%
9 | CCn1c2c(c(=N)c3c1CCC3)CCCC2 | 8.24%
10 | Fc1ccc2[nH]c3c(NCCCN4CCOCC4)ncnc3c2c1 | 13.8%
11 | Oc1ccc(C(=C(Cl)Cl)c2ccc(O)cc2)cc1 | 0.782%
12 | COc1ccc2nc(C)cc(Nc3ccccc3O)c2c1 | 7.14%
13 | COc1ccc(C(C)=O)cc1N1C(=O)C2C(C1=O)C1(c3ccccc3)C(=O)C2(c2ccccc2)C(c2ccc(C)cc2)=C1c1ccc(C)cc1 (configuration not stated) | 28.1%
14 | CC(=O)Nc1nnc(SCc2c(C)cc(C(C)(C)C)cc2C)s1 | 19.7%
15 | COc1ccc(-c2c(C)nn3c(N)c(C#N)cnc23)cc1OC | 11.5%
16 | Cc1ccc(CN2CCC(C(=O)Nc3ccc(-c4cc5ccccc5[nH]4)cc3)CC2)o1 | 22.9%
17 | Oc1ccccc1CNCC12CC3CC(CC(C3)C1)C2 | 18.7%
18 | COc1cccc(Cn2c(Oc3ccccc3)nc3c2c(=O)n(C)c(=O)n3C)c1 | -1.06%
19 | COc1ccccc1N1C(=N)SC(=Cc2ccc(OCc3ccccc3F)cc2)C1=O | 21.4%
20 | O=C(CSc1ccc2nnc(-c3cccc(F)c3)n2n1)Nc1ccc2c(c1)OCO2 | 19.2%
21 | COc1ccc(CNC2CCN(c3ccc(NC(=O)c4cccc(Cl)c4)cc3)CC2)cc1OC | 19.2%

Row | SMILES | inhibition at 25 µM
22 | CC(Oc1ccc(NC(=O)c2cccs2)cc1)C(=O)c1ccc(Cl)cc1 (configuration not stated) | -0.638%
23 | Cc1c(C)n(CC(O)CNC2CCCCC2C)c2ccccc12 (configuration not stated) | 7.84%
24 | Cn1c(=O)n(C)c2cc(CNCCNc3ccnc4cc(Cl)ccc34)ccc21 | 8.95%
25 | O=c1nc(C=Cc2ccc(Br)cc2)oc2ccccc12 | -13.3%
26 | CCc1c(C)c(=N)c2ccccc2n1C | 2.08%
27 | CC1(c2ccccc2)Nc2ccccc2-c2nc3ccccc3n21 (configuration not stated) | 12%
28 | CCOc1cc(Cl)c(C(C)NC(=O)c2ccccc2)cc1OCC (configuration not stated) | 2.61%
29 | Oc1c2c(nc3cc(-c4ccccc4)nn13)CCCC2 | 10.3%
30 | COc1cc(C(=O)Nc2nc3c(cc4c5c(cccc53)CC4)s2)cc(OC)c1OC | 17.8%
31 | CCOc1ccccc1CNC(=O)C1c2ccccc2C(=O)N(CC(C)C)C1c1cccs1 (configuration not stated) | 10.8%
32 | O=C1c2ccccc2-c2nnc(-c3ccc(Br)cc3)cc21 | 1.49%
33 | Cc1ccccc1OCCSc1nc2ccc(NC(=O)c3ccccc3)cc2s1 | 9.66%
34 | CCC(c1ccccc1)c1nn2c(-c3cccs3)nnc2s1 (configuration not stated) | 20.8%
35 | c1ccc(Cn2c(N=Nc3c(Nc4ccccc4)ccc4ccccc34)nc3ccccc32)cc1 | 18.7%
36 | OC(CNC1CCCCC1)Cn1c2ccc(I)cc2c2cc(I)ccc21 (configuration not stated) | 10.9%
37 | CCOC(=O)c1c(NC(=O)c2ccccc2)sc2c(O)c(CN(CC)CC)ccc12 | 16%
38 | CCOC(=O)c1cnc2c(C)cccc2c1Nc1ccc(C(C)=O)cc1 | 8.24%
39 | Cc1cc(C=C2SC(=Nc3ccccc3)N(C3CCCC3)C2=O)c(C)n1-c1ccc(Cl)cc1 | -1.41%
40 | Cc1sc(NC(=O)c2ccco2)c(C(c2cccnc2)N2CCC(Cc3ccccc3)CC2)c1C (configuration not stated) | -1.7%
41 | O=C(O)C1Cc2c([nH]c3ccccc23)C(c2ccc(Cl)cc2Cl)N1 (configuration not stated) | 8.72%

System: Mycobacterium tuberculosis
Test: MMV: Screen against Mtb, single point, replicating, at 25uM
Format: functional

Row | SMILES | inhibition at 25 µM
42 | CCC(O)c1ccc(Br)cc1NC(=O)c1cccc(Cl)c1 (configuration not stated) | 13.9%
43 | CN1CCN(c2c3c(c(C#N)c4nc5ccccc5n24)CCC3)CC1 | 7.2%
44 | Oc1ccc(Cl)cc1CNc1nc2ccccc2[nH]1 | 38.6%
45 | CCOC(=O)C1=C(c2ccccc2)N=c2sc(=Cc3cc(C)n(-c4ccc(F)cc4)c3C)c(=O)n2C1c1cccc(OC)c1OC (configuration not stated) | 1.88%
46 | COc1ccccc1NC1=C(N2CCCCC2)C(=O)c2ccccc2C1=O | 13.3%
47 | Oc1ccc(Br)cc1CN1CCN(Cc2ccc(Cl)cc2)CC1 | 19.7%
48 | COc1ccc(C=C2SC(=N)N(c3ccccc3OC)C2=O)cc1 | 24.5%
49 | COc1cc(SC)ccc1C(=O)N1CCCC(C)C1 (configuration not stated) | 17.4%
50 | CCn1c2c(c(=N)c3c1CCC3)CCCC2 | 10.1%
51 | Fc1ccc2[nH]c3c(NCCCN4CCOCC4)ncnc3c2c1 | 13.6%
52 | Oc1ccc(C(=C(Cl)Cl)c2ccc(O)cc2)cc1 | 9.95%
53 | COc1ccc2nc(C)cc(Nc3ccccc3O)c2c1 | 13.6%
54 | COc1ccc(C(C)=O)cc1N1C(=O)C2C(C1=O)C1(c3ccccc3)C(=O)C2(c2ccccc2)C(c2ccc(C)cc2)=C1c1ccc(C)cc1 (configuration not stated) | 22.4%
55 | CC(=O)Nc1nnc(SCc2c(C)cc(C(C)(C)C)cc2C)s1 | 3.55%
56 | COc1ccc(-c2c(C)nn3c(N)c(C#N)cnc23)cc1OC | 5.83%
57 | Cc1ccc(CN2CCC(C(=O)Nc3ccc(-c4cc5ccccc5[nH]4)cc3)CC2)o1 | 8.26%
58 | Oc1ccccc1CNCC12CC3CC(CC(C3)C1)C2 | 49.7%
59 | COc1cccc(Cn2c(Oc3ccccc3)nc3c2c(=O)n(C)c(=O)n3C)c1 | 3.71%
60 | COc1ccccc1N1C(=N)SC(=Cc2ccc(OCc3ccccc3F)cc2)C1=O | 8.86%
61 | O=C(CSc1ccc2nnc(-c3cccc(F)c3)n2n1)Nc1ccc2c(c1)OCO2 | 5.98%
62 | COc1ccc(CNC2CCN(c3ccc(NC(=O)c4cccc(Cl)c4)cc3)CC2)cc1OC | 47.3%

Row | SMILES | inhibition at 25 µM
63 | CC(Oc1ccc(NC(=O)c2cccs2)cc1)C(=O)c1ccc(Cl)cc1 (configuration not stated) | 2.74%
64 | Cc1c(C)n(CC(O)CNC2CCCCC2C)c2ccccc12 (configuration not stated) | 24.7%
65 | Cn1c(=O)n(C)c2cc(CNCCNc3ccnc4cc(Cl)ccc34)ccc21 | 11.4%
66 | O=c1nc(C=Cc2ccc(Br)cc2)oc2ccccc12 | 20.6%
67 | CCc1c(C)c(=N)c2ccccc2n1C | 4.16%
68 | CC1(c2ccccc2)Nc2ccccc2-c2nc3ccccc3n21 (configuration not stated) | 8.87%
69 | CCOc1cc(Cl)c(C(C)NC(=O)c2ccccc2)cc1OCC (configuration not stated) | 10.4%
70 | Oc1c2c(nc3cc(-c4ccccc4)nn13)CCCC2 | 19.8%
71 | COc1cc(C(=O)Nc2nc3c(cc4c5c(cccc53)CC4)s2)cc(OC)c1OC | -3.53%
72 | CCOc1ccccc1CNC(=O)C1c2ccccc2C(=O)N(CC(C)C)C1c1cccs1 (configuration not stated) | 43.5%
73 | O=C1c2ccccc2-c2nnc(-c3ccc(Br)cc3)cc21 | 9.33%
74 | Cc1ccccc1OCCSc1nc2ccc(NC(=O)c3ccccc3)cc2s1 | 22%
75 | CCC(c1ccccc1)c1nn2c(-c3cccs3)nnc2s1 (configuration not stated) | 19.3%
76 | c1ccc(Cn2c(N=Nc3c(Nc4ccccc4)ccc4ccccc34)nc3ccccc32)cc1 | 14.9%
77 | OC(CNC1CCCCC1)Cn1c2ccc(I)cc2c2cc(I)ccc21 (configuration not stated) | 16.9%
78 | CCOC(=O)c1c(NC(=O)c2ccccc2)sc2c(O)c(CN(CC)CC)ccc12 | 51.8%
79 | CCOC(=O)c1cnc2c(C)cccc2c1Nc1ccc(C(C)=O)cc1 | 0.392%
80 | Cc1cc(C=C2SC(=Nc3ccccc3)N(C3CCCC3)C2=O)c(C)n1-c1ccc(Cl)cc1 | 2.04%
81 | Cc1sc(NC(=O)c2ccco2)c(C(c2cccnc2)N2CCC(Cc3ccccc3)CC2)c1C (configuration not stated) | 21.7%
82 | O=C(O)C1Cc2c([nH]c3ccccc23)C(c2ccc(Cl)cc2Cl)N1 (configuration not stated) | 13.7%
